Experimental data: patent US9216972B2, “Tricyclic heterocyclic compounds” (Bristol-Myers Squibb Company, priority 2009, dated 2015)

Tests used:
human S1P1 = human S1P1 (Homo sapiens (Human), UniProt P21453); test: S1P1 Binding Assay (33P-S1P radioligand competition); conditions: membranes from CHO cells expressing human S1P1; 0.03 nM 33P-S1P; rounded to two digits
Experimental: Membranes were prepared from CHO cells expressing human S1P1. Cells pellets (1×10^8cells/pellet) were suspended in buffer containing 20 mM HEPES, pH 7.5, 50 mM NaCl, 2 mM EDTA and Protease Inhibitor cocktail (Roche), and disrupted on ice using the Polytron homogenizer. The homogenate was centrifuged at 20,000 rpm (48,000 g) and the supernatant was discarded. The membrane pellets were resuspended in buffer containing 50 mM HEPES, pH 7.5, 100 mM NaCl, 1 mM MgCl2, 2 mM EDTA and stored in aliquots at −80° C. after protein concentration determination.
Membranes (2 μg/well) and 0.03 nM final concentration of ^33P-S1P ligand (1 mCi/ml, American Radiolabeled Chemicals) diluted in assay buffer (50 mM HEPES, pH7.4, 5 mM MgCl2, 1 mM CaCl2, 0.5% fatty acid free BSA, 1 mM NaF) were added to the compound plates (384 Falcon v-bottom plate (0.5 μl/well in a 11 point, 3-fold dilution). Binding was performed for 45 minutes at room temperature, terminated by collecting the membranes onto 384-well Millipore FB filter plates, and radioactivity was measured by TopCount. The competition data of the test compounds over a range of concentrations was plotted as percentage inhibition of radioligand specific binding. The IC50 is defined as the concentration of competing ligand needed to reduce specific binding by 50%.

[1] = target: S1P3 (membranes from EDG3-Ga15-bla HEK293T cells) (Homo sapiens (Human), UniProt Q99500); test: Receptor [35S] GTPγS Binding Assay, S1P3; format: biochemical; conditions: EDG3-Ga15-bla HEK293T cell membranes; rounded to two digits
Sequence of S1P3 (membranes from EDG3-Ga15-bla HEK293T cells) (Q99500 whole entry): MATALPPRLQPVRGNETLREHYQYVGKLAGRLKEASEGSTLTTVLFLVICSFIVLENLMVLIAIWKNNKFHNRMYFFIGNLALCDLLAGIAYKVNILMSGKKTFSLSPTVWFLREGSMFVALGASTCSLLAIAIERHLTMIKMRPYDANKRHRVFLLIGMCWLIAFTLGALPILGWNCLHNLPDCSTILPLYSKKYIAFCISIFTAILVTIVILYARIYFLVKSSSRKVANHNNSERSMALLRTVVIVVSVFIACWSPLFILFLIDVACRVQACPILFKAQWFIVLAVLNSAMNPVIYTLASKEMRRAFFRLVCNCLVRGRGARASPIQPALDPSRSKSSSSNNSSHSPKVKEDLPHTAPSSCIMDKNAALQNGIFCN
Experimental: (§1) Receptor [35S] GTPγS Binding Assays
(§2) Compounds were loaded in a 384 Falcon v-bottom plate (0.5 μl/well in a 11 point, 3-fold dilution). Membranes prepared from S1P1/CHO cells or EDG3-Ga15-bla HEK293T cells were added to the compound plate (40 μl/well, final protein 3 μg/well) with multidrop. [^35S]GTP (1250 Ci/mmol, Perkin Elmer) was diluted in assay buffer: 20 mM HEPES, pH7.5, 10 mM MgCl2, 150 mM NaCl, 1 mM EGTA, 1 mM DTT, 10 μM GDP, 0.1% fatty acid free BSA, and 10 μg/ml Saponin to 0.4 nM. 40 μl of the [^35S] GTP solution was added to the compound plate with a final concentration of 0.2 nM. The reaction was kept at room temperature for 45 min. At the end of incubation, all the mixtures in the compound plate were transferred to Millipore 384-well FB filter plates via the Velocity11 Vprep liquid handler. The filter plate was washed with water 4 times by using the manifold Embla plate washer and dried at 60° C. for 45 min. MicroScint 20 scintillation fluid (30 μl) was added to each well for counting on the Packard TopCount. EC50 is defined as the agonist concentration that corresponds to 50% of the Ymax (maximal response) obtained for each individual compound tested. The results in Table B were rounded to two digits.

[2] = target: S1P1 (membranes from S1P1/CHO cells) (Homo sapiens (Human), UniProt P21453); test: Receptor [35S] GTPγS Binding Assay, S1P1; format: biochemical; conditions: S1P1/CHO cell membranes; rounded to two digits
Sequence of S1P1 (membranes from S1P1/CHO cells) (P21453 whole entry): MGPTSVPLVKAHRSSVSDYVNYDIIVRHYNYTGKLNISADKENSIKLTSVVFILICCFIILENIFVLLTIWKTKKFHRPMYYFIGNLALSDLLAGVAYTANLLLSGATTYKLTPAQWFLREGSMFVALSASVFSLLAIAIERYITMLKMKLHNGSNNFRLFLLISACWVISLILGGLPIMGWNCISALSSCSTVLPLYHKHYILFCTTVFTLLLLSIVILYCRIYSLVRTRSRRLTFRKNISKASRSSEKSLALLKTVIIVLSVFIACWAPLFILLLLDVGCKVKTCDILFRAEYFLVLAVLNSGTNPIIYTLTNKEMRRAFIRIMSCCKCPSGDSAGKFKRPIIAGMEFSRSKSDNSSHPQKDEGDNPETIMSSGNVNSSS
Experimental: as §1, §2

[3] = tested on: circulating blood lymphocytes; test: Blood Lymphocyte Reduction Assay (BLR) in Rodents; format: in vivo; conditions: Lewis rats, oral, versus vehicle (PEG300) group
Experimental: Blood Lymphocyte Reduction Assay (BLR) in Rodents
Lewis rats were dosed orally with test article (as a solution or suspension in the vehicle) or vehicle alone (polyethylene glycol 300, “PEG300”). Blood was drawn at 4 hr and 24 h by retro-orbital bleeding. Blood lymphocyte counts were determined on an ADVIA 120 Hematology Analyzer (Siemens Healthcare Diagnostics). The results were measured as a reduction in the percentage of circulating lymphocytes as compared to the vehicle treated group at the 4 hr and 24 hr measurement. The results represent the average results of all animals within each treatment group (n=3-4).

Sequence of human S1P1 (P21453 whole entry): as above

SMILES | IC50 (human S1P1) [nM] | EC50 [1] [nM] | EC50 [2] [nM] | % Reduction in Lymphocytes at 4 hr. ([3]; dose 1.0 mg/kg) [%] | % Reduction in Lymphocytes at 4 hr. ([3]; dose 3.0 mg/kg) [%]
CC(N)(CO)CCc1ccc2c(c1)CCc1c-2noc1-c1noc(-c2ccccc2)c1C(F)(F)F (single isomer, unassigned) [Example 93, 2-amino-2-methyl-4-(3-(5-phenyl-4-(trifluoromethyl)isoxazol-3-yl)-4,5-dihydronaphtho[1,2-c]isoxazol-7-yl)butan-1-ol] | 22 | > 63000 | 40 |  | 
CC(N)(CCc1ccc2c(c1)CCc1c-2noc1-c1noc(-c2ccccc2)c1C(F)(F)F)C(=O)O (single isomer, unassigned) [Example 94, 2-amino-2-methyl-4-(3-(5-phenyl-4-(trifluoromethyl)isoxazol-3-yl)-4,5-dihydronaphtho[1,2-c]isoxazol-7-yl)butanoic acid] | 16 | 16200 | 12 |  | 
N#CC1(NC(=O)[C@H](O)c2ccc3c(c2)CCc2c-3noc2-c2noc(-c3ccccc3)c2C(F)(F)F)CC1 (stereo in doubt) [Example 132, N-(1-cyanocyclopropyl)-2-hydroxy-2-(3-(5-phenyl-4-(trifluoromethyl)isoxazol-3-yl)-4,5-dihydronaphtho[1,2-c]isoxazol-7-yl)acetamide] | 4.1 | 8500 | 1.7 |  | 
CCCc1ccc(-c2onc3c2COc2cc(CN4CC(C(=O)O)C4)ccc2-3)cc1 [Example 2, 1-((3-(4-Propylphenyl)-4H-chromeno[4,3-c]isoxazol-7-yl)methyl)azetidine-3-carboxylic acid] | 1.2 | 8200 | 1.2 | 65 | 
CCCc1ccc(-c2noc3c2COc2cc(CN4CC(C(=O)O)C4)ccc2-3)cc1 [Example 3, 1-((3-(4-Propylphenyl)-4H-chromeno[3,4-d]isoxazol-7-yl)methyl)azetidine-3-carboxylic acid] | 1.3 | 1300 | 1.3 | 85 | 
CC(C)Cc1onc(-c2onc3c2CCc2cc(CN4CC(C(=O)O)C4)ccc2-3)c1C(F)(F)F [Example 5, 1-((3-(5-Isobutyl-4-(trifluoromethyl)isoxazol-3-yl)-4,5-dihydronaphtho[1,2-c]isoxazol-7-yl)methyl)azetidine-3-carboxylic acid] | 0.57 | 1500 | 0.74 | 83 | 
O=C(O)C1CN(Cc2ccc3c(c2)CCc2c-3noc2-c2noc(-c3ccccc3)c2C(F)(F)F)C1 [Example 6, 1-((3-(5-Phenyl-4-(trifluoromethyl)isoxazol-3-yl)-4,5-dihydronaphtho[1,2-c]isoxazol-7-yl)methyl)azetidine-3-carboxylic acid] | 0.66 | 4400 | 0.59 | 86 | 
O=C(O)C1CN(Cc2ccc3c(c2)CCc2c-3noc2-c2onc(-c3ccccc3)c2C(F)(F)F)C1 [Example 7, 1-((3-(3-Phenyl-4-(trifluoromethyl)isoxazol-5-yl)-4,5-dihydronaphtho[1,2-c]isoxazol-7-yl)methyl)azetidine-3-carboxylic acid] | 57 | > 31000 | 57 |  | 
CCCc1ccc(-c2onc3c2CCc2cc(OC[C@H](O)CO)ccc2-3)cc1 [Example 12, (R)-3-(3-(4-Propylphenyl)-4,5-dihydronaphtho[1,2-c]isoxazol-7-yloxy)propane-1,2-diol] | 390 | > 31000 | 6300 |  | 
CC(C)Oc1ccc(-c2onc3c2CCc2cc(CN4CC(C(=O)O)C4)ccc2-3)cc1C(F)(F)F [Example 14, 1-((3-(4-Isopropoxy-3-(trifluoromethyl)phenyl)-4,5-dihydronaphtho[1,2-c]isoxazol-7-yl)methyl)azetidine-3-carboxylic acid] | 6.7 | > 31000 | 11 |  | 
CC(C)Oc1ccc(-c2onc3c2CCc2cc(CNCCC(=O)O)ccc2-3)cc1C#N [Example 16, 3-((3-(3-Cyano-4-isopropoxyphenyl)-4,5-dihydronaphtho[1,2-c]isoxazol-7-yl)methylamine)propanoic acid] | 24 | 11000 | 24 |  | 
CCCc1ccc(-c2noc3c2CCc2cc(CN4CC(C(=O)O)C4)ccc2-3)cc1 [Example 20, 1-((3-(4-Propylphenyl)-4,5-dihydronaphtho[2,1-d]isoxazol-7-yl)methyl)azetidine-3-carboxylic acid] | 56 | > 31000 | 220 |  | 
O=C(O)C1CN(Cc2ccc3c(c2)CCc2c-3n[nH]c2-c2onc(-c3ccccc3)c2C(F)(F)F)C1 [Example 22, 1-((3-(3-Phenyl-4-(trifluoromethyl)isoxazol-5-yl)-4,5-dihydro-2H-benzo[g]indazol-7-yl)methyl)azetidine-3-carboxylic acid] | 980 | > 63000 | 980 |  | 
CC(C)Cc1ccc(-c2onc3c2CCc2cc(CN4CC(C(=O)O)C4)ccc2-3)cc1C(F)(F)F [Example 23, 1-((3-(4-Isobutyl-3-(trifluoromethyl)phenyl)-4,5-dihydronaphtho[1,2-c]isoxazol-7-yl)methyl)azetidine-3-carboxylic acid] | 0.98 | 3500 | 0.73 |  | 76
OCc1ccc2c(c1)CCc1c-2noc1-c1cccc(C(F)(F)F)c1 [Example 24, (3-(3-(Trifluoromethyl)phenyl)-4,5-dihydronaphtho[1,2-c]isoxazol-7-yl)methanol] | 3200 | > 31000 | 3200 |  | 
Oc1ccc2c(c1)CCc1c-2noc1-c1cc(-c2ccccc2)on1 [Example 32, 3-(5-Phenylisoxazol-3-yl)-4,5-dihydronaphtho[1,2-c]isoxazol-7-ol] | 15000 | > 63000 | 15000 |  | 
Oc1ccc2c(c1)CCc1c-2noc1-c1cc(-c2ccccc2Cl)n(-c2ccccc2)n1 [Example 33, 3-(5-(2-Chlorophenyl)-1-phenyl-1H-pyrazol-3-yl)-4,5-dihydronaphtho[1,2-c]isoxazol-7-ol] | 250 | > 31000 | 250 |  | 
CC(C)Cc1ccc(-c2onc3c2CCc2cc(O)ccc2-3)cc1 [Example 41, 3-(4-Isobutylphenyl)-4,5-dihydronaphtho[1,2-c]isoxazol-7-ol] | 1600 | > 63000 | 1600 |  | 
O=C(O)C1CN(Cc2ccc3c(c2)OCc2c-3noc2-c2onc(-c3ccccc3)c2C(F)(F)F)C1 [Example 61, 1-((3-(3-phenyl-4-(trifluoromethyl)isoxazol-5-yl)-4H-chromeno[4,3-c]isoxazol-7-yl)methyl)-azetidine-3-carboxylic acid] | 1.6 | > 31000 | 0.32 |  | 
O=C(O)C1CN(Cc2cc3c(cc2F)-c2noc(-c4onc(-c5ccccc5)c4C(F)(F)F)c2CC3)C1 [Example 67] | 5.6 | 14700 | 0.76 |  | 
O=C(O)[C@H]1CCCN(Cc2ccc3c(c2)CCc2c-3noc2-c2noc(-c3ccccc3)c2C(F)(F)F)C1 [Example 70, (3S)-1-((3-(5-Phenyl-4-(trifluoromethyl)isoxazol-3-yl)-4,5-dihydronaphtho[1,2-c]isoxazol-7-yl)methyl)piperidine-3-carboxylic acid] | 22 | 4660 | 49 |  | 
OCC1COCCN1Cc1ccc2c(c1)CCc1c-2noc1-c1noc(-c2ccccc2)c1C(F)(F)F (centres unmarked) [Example 74] | 600 | > 63000 | 410 |  | 
